Experimental data as given in patent publication US11026906B2 (priority 2016, dated 2021).
“Also recorded” adds a separate entry of the source. Like-named read-outs stand apart in the source and are kept apart here.

What was measured:
[1] = in vivo; cited from earlier work
[2] = Stability of the compositions (storage, light, heating under vacuum)
[3] = for Area under the curve (AUC0-∞), Mean / Half-life (T1/2), Mean / Oral Bioavailability, Mean / Rate of elimination (K), Mean / Maximum serum concentration (Cmax), Mean: 10 subjects; for Maximum serum concentration (Cmax), Mean: fasted
Source text: The study was approved by an Institutional Review Board. […] Each provided informed consent to participate in the study.
(§1) On the day of dose administration, the subjects arrived at the clinic fasted. Their qualifications for enrollment were reviewed to ensure compliance. Immediately prior to administration of the test article, an indwelling venous catheter was placed and a blood sample was withdrawn into a trace metal-free tube (the t=0 sample). […] After drinking the test article solution, fasting continued for 2 hours. During the day, however, subjects were provided usual and customary meals. Potential adverse events were monitored.
Each blood sample was stored appropriately until all samples had been collected for the day. Then the blood samples were centrifuged to separate the serum, and each serum sample was transferred into two trace metal-free vials. The vials were shipped to an independent analytical laboratory for serum strontium analyses.
as §1, with “One week later, on the day” for “On the day”, “administration, the same subjects arrived” for “administration, the subjects arrived”

[4] = tested on: subjects with femoral neck BMD less than 0.600 g/cm^2; experiment: Double-blind clinical study, non-vertebral fractures over 3 year follow-up (expected results); settings: 200 mg strontium daily vs placebo
Source text: In a double-blind clinical study, 80 subjects are divided into two groups (n=40). The control group receives a daily supplement containing 1.8 g of sodium L-lactate (placebo). […] All non-vertebral fractures will be recorded with the exception of the coccyx, skull, jaw, face, phalanx (fingers and toes) and ankle, since these latter are not regarded as being related to osteoporosis.

[5] = tested on: subject with osteonecrosis of the jaw and osteoarthritis; experiment: Efficacy study in one subject: daily oral strontium L-lactate; assay type: in vivo, human
Experimental: Likewise, today there are no effective treatments for osteonecrosis of the jaw caused by lengthy use of bone resorption inhibitors (anti-resorptives). […] The test subject experienced deterioration of the jawbone sufficient to loosen their teeth and cause pain when chewing. They received a 200 mg dose of strontium as the L-lactate each day, taken separately from food. […] Over a 3-month period, the subject receiving this treatment experienced a restoration of the jawbone sufficient to set the teeth more firmly and reduce the pain associated with chewing. […] The benefits were so remarkable that the subject continued treatment for at least 8 months, with continuing resolution of the bone and cartilage defects.
A subject suffered from latent osteonecrosis of the jaw as a result of several years of alendronate treatment for osteoporosis. In addition to loose teeth and jaw pain during chewing due to the osteonecrosis, they suffered from osteoarthritis. Their dentist advised them that the necrosis was so serious they would lose several teeth and might have to change from a normal diet to a soft-food diet. Their arthritis was so severe that they had to give up crocheting and knitting, hobbies they had enjoyed for many years. […] They requested access to strontium L-lactate of the present invention. […] Their treatment continued for 8 months with similar improvements.

[6] = daily doses of 0.3-0.6 grams; cited from earlier work
[7] = tested on: men and women having low bone mass; settings: cited from earlier work
[8] = about 200 mg strontium per day orally, after 3 months

C[C@@H](O)C(=O)O [D-lactate]
blood concentration causing acidosis and encephalopathies [1]: ≥ 3000 µM

C[C@H](O)C(=O)[O-].C[C@H](O)C(=O)[O-].O.O.O.[Sr+2] [strontium L-lactate trihydrate]
stability on exposure to light [2]: stable | stability during storage ([2]; 25° C./60% relative humidity): stable | racemization on heating ([2]; solid heated under vacuum, about 100° C. to about 130° C.): No racemization

C[C@H](O)C(=O)[O-].C[C@H](O)C(=O)[O-].[Sr+2] [strontium L-lactate]
average serum concentration of strontium compared with strontium ranelate ([3]; 170 mg dose of strontium as L-lactate vs 680 mg dose of strontium as ranelate (U.S. Pat. No. 7,595,342)): approximately equaled the serum concentration of strontium achieved by ingesting a 680 mg dose of strontium as the ranelate; also recorded: approximately equal to the serum concentrations of strontium provided by 680 mg of water-insoluble strontium ranelate | time at which average serum strontium concentration reached a maximum ([3]; after ingesting a solution of strontium L-lactate in water): about 3 hr | adverse effects ([3]; after ingesting any of three escalating doses (170, 340, 680 mg strontium)): no adverse effects | Area under the curve (AUC0-∞), Mean ([3]; oral dose 170 mg strontium): 47.8 mg Sr/L · h | Half-life (T1/2), Mean ([3]; oral dose 170 mg strontium): 12.3 | Oral Bioavailability, Mean ([3]; oral dose 170 mg strontium): 0.94 | Rate of elimination (K), Mean ([3]; oral dose 170 mg strontium): 0.06 h⁻¹ | Area under the curve (AUC0-∞), Mean ([3]; oral dose 340 mg strontium): 115.6 mg Sr/L · h | Half-life (T1/2), Mean ([3]; oral dose 340 mg strontium): 12.1 | Oral Bioavailability, Mean ([3]; oral dose 340 mg strontium): 0.93 | Rate of elimination (K), Mean ([3]; oral dose 340 mg strontium): 0.06 h⁻¹ | Area under the curve (AUC0-∞), Mean ([3]; oral dose 680 mg strontium): 185.0 mg Sr/L · h | Half-life (T1/2), Mean ([3]; oral dose 680 mg strontium): 14.0 | Oral Bioavailability, Mean ([3]; oral dose 680 mg strontium): 0.94 | Rate of elimination (K), Mean ([3]; oral dose 680 mg strontium): 0.05 h⁻¹ | Maximum serum concentration (Cmax), Mean ([3]; single oral dose 340 mg strontium as strontium L-lactate in 100 mL water): 6.3 mg Sr/L | Maximum serum concentration (Cmax), Mean ([3]; single oral dose 680 mg strontium as strontium L-lactate in 100 mL water): 9.3 mg Sr/L | non-vertebral fractures [4]: significant reduction in all non-vertebral fractures | side effects ([5]; 200 mg strontium per day, at least 8 months): no side effects | osteoarthritis: stiffness, pain, flexibility of hands [5, 8]: increased flexibility of osteoarthritic hands and fingers; also recorded: the stiffness and pain of their osteoarthritis had significantly abated | osteonecrosis of the jaw: teeth setting and pain when chewing [5, 8]: reduced the injury and pain associated with osteonecrosis of the jaw; also recorded: their teeth were more set in their jawbone and that they experienced less pain when chewing

CC(O)C(=O)[O-].CC(O)C(=O)[O-].[Sr+2] (centres unmarked) [strontium lactate]
albumin in the urine [6]: decrease albumin in the urine

N#Cc1c(N(CC(=O)[O-])CC(=O)[O-])sc(C(=O)[O-])c1CC(=O)[O-].[Sr+2].[Sr+2] [strontium ranelate]
incidence of fractures ([7]; daily dose of 2 grams (680 mg strontium), almost a decade of clinical use): significantly reduced incidence of fractures | side effects of therapeutic doses of the strontium ion ([7]; human exposure): does not cause gastric irritation, esophageal cancer, colon cancer, or osteonecrosis of the jaw

O=C([O-])CCC(=O)[O-].[Sr+2] [strontium succinate]
benefit in treating osteoporosis ([7]; daily dose of 1.7 grams (680 mg strontium)): highly beneficial in treating osteoporosis
